Results published in patent publication US20260345654A1, “2,8-DIHYDROXYQUINOLINE GLUCURONIDE DERIVATIVES WITH ENHANCED PROPERTIES FOR USE AS ANTICANCER, ANTIVIRAL, ANTIMICROBIAL, AND OTHER THERAPEUTIC APPLICATIONS” (priority 2023, published 2026).
“Also recorded” adds a separate entry of the source.

How the values were obtained:
[1] = test system: A2780, A549 and MDA-MB-231 cells; conditions: cited from earlier work; for improvement with the addition of copper: with vs without copper
Solubility = conditions: for solubility of copper complex: aqueous solutions
Chemical stability = assay type: physicochemical

| SMILES | enhancement of IC50 by copper ([1]; 20 μM Cu^+2) | improvement with the addition of copper [1] | solubility of copper complex (Solubility) | other results |
| --- | --- | --- | --- | --- |
| OC[C@H]1O[C@@H](Oc2c(I)cc(Cl)c3cccnc23)[C@H](O)[C@@H](O)[C@@H]1O [GluCQ, 5-chloro-7-iodo-8-quinolinyl-β-D-glucopyranoside] | 9 × | about 2 fold |  |  |
| Oc1cccc2cccnc12.[Cu+2] [8HQ copper complex, reference compound] |  |  | aqueous insoluble |  |
| O=C(O)[C@H]1O[C@@H](Oc2ccc3cccc(O)c3n2)[C@H](O)[C@@H](O)[C@@H]1O.[Cu+2] [G2-8HQ copper complex] |  |  | highly soluble in aqueous solutions | stability of copper complex (Chemical stability; in excipient, 24 hours): precipitation after 24 hours; stability of copper complex (Chemical stability; pH values less than 8): rapid precipitated insoluble 2-8HQ copper complex |
| Oc1ccc2cccc(O)c2n1 [2-8HQ, 2,8-quinolinediol] |  |  |  | solubility (Solubility; water / aqueous): poor aqueous solubility; also recorded: insoluble in aqueous systems |
| OC[C@H]1O[C@@H](Oc2cccc3cccnc23)[C@H](O)[C@@H](O)[C@@H]1O [Glu8HQ, 8-quinolinyl beta-D-glucopyranoside] | 18 × | 10-20 fold |  | activity relative to Glu8CQ ([1]; 20 μM Cu^+2): 10 ×; activity vs CQ analog ([1]; glucose derivatives, FIG. 18): greater activity than the CQ analog (GluCQ) |
